Source: patent US7771761B2, “Cheese with calcium lactate crystal inhibitor” (Regents of The University of Minnesota, priority 2005, dated 2010)
Where a name gives a salt, the structure may show the parent alone. Read-outs that look alike come from different tables or passages of the source.

Columns and labels:
[1] = Solubility model Example 4: lactate analysis by HPLC; conditions: for Lactate analysis After Storage: 1.5% additive, 14 days at 7° C., filtered supernatant
Description: (§1) Demineralized water (60° C.) was then added to the flask to obtain a final weight of 100 g and the flask was stirred to dissolve the calcium lactate powder. Subsequently a piece of 1.5×3 cm sand paper was added to the flask to provide a nucleation site for calcium lactate crystal formation and the flask was sealed with a rubber stopper.
(§2) After preparation a sample of each solution was collected.
(§3) Subsequently all solutions were stored at 7° C. for 14 days. After 14 days the flasks were visually inspected for the presence of crystals on the sand paper and the solutions were filtered at 7° C. through filter paper (Whatman 4; Whatman International Ltd., Maidstone, England).
(§4) The supernatant and the sample collected prior to storage were analyzed for lactic acid using High Performance Liquid Chromatography (HPLC) and for calcium content by Atomic Absorption Spectroscopy (AAS), providing the results reported below in Tables II and III.

[2] = Solubility model Example 4: calcium analysis by Atomic Absorption Spectroscopy; conditions: for Calcium analysis After Storage: 1.5% additive, 14 days at 7° C., filtered supernatant
Description: as §1, §2, §3, §4

[3] = Solubility model Example 4: visual inspection for crystals on sand paper in calcium lactate solution; type: physicochemical; conditions: 1.5% additive in 5.31 g calcium lactate/100 g solution, pH 6.6, 14 days at 7° C.
Description: as §1, §2, §3

[4] = Solubility model Example 3: filtrate analysis of calcium lactate solutions with sodium gluconate; type: physicochemical; conditions: 48 hours at about 40° F., cold filtered
Text: A test was run to determine the ability of ionic gluconate provided by sodium gluconate in an aqueous solution to bind with lactate over time, to thereby model the believed primary phenomenon resulting in reduced formation of calcium lactate crystal. In each sample of the model, 14.1 g of calcium lactate pentahydrate (CH3CHOHCOO)2 Ca.5H2O) was used to provide 10 g of calcium lactate (1.83 g calcium ion, 8.17 g lactate ion). Different amounts of sodium gluconate (NaC6H11O7), amounts shown in Table I below) were combined with the calcium lactate pentahydrate and diluted to 100 ml with water. The samples were prepared at room temperature and each mixed well. The samples were then refrigerated at about 40° F. for 48 hours, with each sample being mixed several times during the 48 hour holding period. After the holding period, the samples were cold filtered (40° F.) and the filtrate analyzed for lactate, gluconate and calcium concentrations.

Row | SMILES | Lactate analysis Initial Concentration [1] [%] | Lactate analysis After Storage [1] [%] | Calcium analysis Initial Concentration [2] [%] | Calcium analysis After Storage [2] [%] | presence of crystals on the sand paper (visual inspection) [3] | Lactate analysis Initial Concentration ([1]; 0 days, 1.5 %, pH 6.6) [%] | Calcium analysis Initial Concentration ([2]; 0 days, 1.5 %, pH 6.6) [%] | FILTRATE RESULTS C6H11O7(%) ([4]; 5 g NaC6H11O7 added to 14.1 g calcium lactate pentahydrate in 100 ml) | FILTRATE RESULTS C6H11O7(%) ([4]; 10 g NaC6H11O7 added to 14.1 g calcium lactate pentahydrate in 100 ml) | FILTRATE RESULTS C6H11O7(%) ([4]; 15 g NaC6H11O7 added to 14.1 g calcium lactate pentahydrate in 100 ml) | FILTRATE RESULTS C6H11O7(%) ([4]; 20 g NaC6H11O7 added to 14.1 g calcium lactate pentahydrate in 100 ml) | FILTRATE RESULTS C6H11O7(%) ([4]; 25 g NaC6H11O7 added to 14.1 g calcium lactate pentahydrate in 100 ml)
1 | O=C(O)[C@H](O)[C@@H](O)[C@H](O[C@@H]1O[C@H](CO)[C@H](O)[C@H](O)[C@H]1O)[C@H](O)CO [Sodium lactobionate, lactobionic acid] | 4.33 | 4.33 | 1.05 | 1.04 | no crystals were visually observed |  |  |  |  |  |  | 
2 | O=C(O)CC(O)C(=O)O (stereo not drawn) [Sodium malate, malic acid disodium salt] |  | 4.47 |  | 1.06 | no crystals were visually observed | 4.43 | 1.07 |  |  |  |  | 
3 | O=C([O-])[C@H](O)[C@@H](O)[C@H](O)[C@H](O)CO.[Na+] [Sodium gluconate, sodium gluconate] |  | 4.41 |  | 1.08 | no crystals were visually observed |  |  | 2.97 | 7.55 | 11.15 | 14.21 | 16.61
